Measurements taken from patent US6559177B2, “5, 11-Dioxa-benzo[b]fluoren-10-one and 5-oxa-11-thia-benzo[b]fluoren-10-ones as estrogenic agents” (Wyeth, priority 2001, dated 2003).
Read-outs that look alike come from different tables or passages of the source.

Experiments:
human ERβ = target: T1, human ERβ (Homo sapiens, UniProt Q92731); test: Competition with [3H]-17β-estradiol for binding to ERβ ligand binding domain
T1 construct: made in house; host or cells: E. coli (crude lysate)
Description: (§1) This test procedure provides the methodology for one to determine whether a particular compound binds to the estrogen receptor (and is therefore “estrogenic”) and whether there is selectivity for ERα or ERβ. […] The procedure used is briefly described below. A crude lysate of E. coli expressing the estrogen receptor ligand binding domains (D,E, & F) of human ERα or ERβ was prepared. Both receptors and compounds were diluted in 1× Dulbecco's PBS (DPBS) supplemented with 1 mM EDTA. […] After between 5 and 15 hours at room temperature, the plates were washed with DPBS/1 mM EDTA and bound radioactivity determined by liquid scintillation counting.

human ERα = target: T2, human ERα (Homo sapiens, UniProt P03372); test: Competition with [3H]-17β-estradiol for binding to ERα ligand binding domain; conditions: E. coli lysate expressing ER ligand binding domains (D,E,&F); 2 nM [3H]-17β-estradiol; 5-15 hours at room temperature
T2 construct: made in house; host or cells: E. coli (crude lysate)
T2 sequence (P03372 311-547 limits assumed): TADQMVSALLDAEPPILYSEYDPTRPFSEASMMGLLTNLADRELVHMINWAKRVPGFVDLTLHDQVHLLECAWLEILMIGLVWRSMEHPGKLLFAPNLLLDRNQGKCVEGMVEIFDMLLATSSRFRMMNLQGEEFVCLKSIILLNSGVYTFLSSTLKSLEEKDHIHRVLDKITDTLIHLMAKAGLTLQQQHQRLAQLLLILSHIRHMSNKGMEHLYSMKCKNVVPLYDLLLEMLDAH
Description: as §1

[1] = E. coli lysate expressing ER ligand binding domains (D,E,&F); 2 nM [3H]-17β-estradiol; 5-15 hours at room temperature; read-out: ERβ IC50
[2] = read-out: ERβ IC50; E. coli lysate expressing ER ligand binding domains (D,E,&F); 2 nM [3H]-17β-estradiol; 5-15 hours at room temperature

T1 sequence (Q92731 264-498 limits assumed): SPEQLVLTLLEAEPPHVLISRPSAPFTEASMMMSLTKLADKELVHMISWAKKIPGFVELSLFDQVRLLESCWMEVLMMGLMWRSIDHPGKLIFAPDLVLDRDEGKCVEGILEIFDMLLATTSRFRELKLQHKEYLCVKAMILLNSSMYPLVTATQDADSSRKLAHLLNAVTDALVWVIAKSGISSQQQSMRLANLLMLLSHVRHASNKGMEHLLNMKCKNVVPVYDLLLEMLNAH

Compound	IC50 (human ERβ; [1])	IC50 (human ERα)	IC50 (human ERβ; [2])
O=c1c2ccc(O)cc2oc2c1oc1cc(O)ccc12 [2,7-Dihydroxy-5,11-dioxa-benzo[b]fluoren-10-one]	32 nM	550 nM	
O=c1c2cc(O)ccc2oc2c1oc1cc(O)ccc12 [2,8-Dihydroxy-5,11-dioxa[b]fluoren-10-one]	192 nM	1500 nM	
O=c1c2oc3ccc(O)cc3c2oc2cc(O)cc(O)c12 [3,7,9-Trihydroxy-5,11-dioxa-benzo[b]fluoren-10-one]	70 nM	2950 nM	
O=c1c2ccc(O)cc2oc2c1oc1ccc(O)cc12 [3,7-Dihydroxy-5,11-dioxa[b]fluoren-10-one]	850 nM		
O=c1c2cc(O)ccc2oc2c1oc1ccc(O)cc12 [3,8-Dihydroxy-5,11-dioxa[b]fluoren-10-one]	44 nM	188 nM	
O=c1c2oc3ccccc3c2oc2cc(O)cc(O)c12 [7,9-Dihydroxy-5,11-dioxa-benzo[b]fluoren-10-one]			3190 nM
O=c1c2sc3ccccc3c2oc2cc(O)cc(O)c12 [7,9-Dihydroxy-5-oxa-11-thia-benzo[b]fluoren-10-one]	760 nM	3670 nM	
O=c1c2ccc(O)cc2oc2c1sc1ccccc12 [7-Hydroxy-5-oxa-11-thia-benzo[b]fluoren-10-one]			2930 nM
O=c1c2ccc(O)cc2oc2c1oc1c3ccccc3ccc21 [9-Hydroxy-7,13-dioxa-dibenzo[a,h]fluoren-12-one]	2710 nM	> 5000 nM	
